In patent US20250188065A1, “LIGHT-CONTROLLED BIOORTHOGONAL TETRAZINE LIGATION” (The Regents of the University Of California, priority 2020, published 2025):
Entries after “also recorded” stand apart in the source; their conditions may differ. Values belong to the compound of their own block, whether it stands above or below them.

Key:
[1] = Second-order rate constant of tetrazine ligation with strained dienophile; conditions: with TCO-OH; disappearance of tetrazine absorption at 521 nm, pseudo first-order conditions
Description: (§1) A photocaged dihydrotetrazine should be stable in aqueous solution and the dihydrotetrazine should rapidly be oxidized to tetrazine by air. With this hypothesis in mind, we synthesized photocaged dihydrotetrazine 1a from 3-(but-3-yn-1-yl)-6-phenyl-1,2,4,5-tetrazine, which could be converted to the corresponding dihydrotetrazine using the reductant thiourea dioxide (FIG. 1B). 1-(2-Nitrophenyl)ethyl carbamate was investigated as the photocleavable functional group, due to its sensitivity to visible blue light (28) and biocompatibility (29). After reacting the dihydrotetrazine intermediate with the selected photocleavable group, the desired product 1-(2-nitrophenyl)ethyl 6-(but-3-yn-1-yl)-3-phenyl-1,2,4,5-tetrazine-1(4H)-carboxylate photocaged dihydrotetrazine 1a was obtained. Nuclear magnetic resonance (NMR) studies confirmed that the secondary amine adjacent to the alkyl group of dihydrotetrazine 1a is functionalized. We analyzed light-triggered tetrazine formation from photocaged dihydrotetrazine 1a (FIGS. 2A-2B). […] We measured a second-order rate constant of 101±3 M^−1 s^−1 between 2a and a model strained dienophile, trans-4-cycloocten-1-ol (TCO-OH), by monitoring the disappearance of the characteristic tetrazine visible absorption at 521 nm under pseudo first-order conditions (13).

[2] = Stability in 4-methylpiperidine/DMF solution (Fmoc deprotection conditions); assay type: physicochemical
Description: Although tetrazine ligation is a widely used bioorthogonal tool, tetrazine-containing amino acid has been rarely explored in the solid-phase peptide synthesis (SPPS) due to dramatic degradations of tetrazines under the protection conditions, such as 4-methylpiperidine/DMF solution. Markedly, photocaged dihydrotetrazine 1a proves to be stable in the presence of 4-methylpiperidine/DMF solution, so that we were able to employ photocaged dihydrotetrazine-containing amino acid in SPPS and obtained the desired tetrazine-containing peptide in the late stage. Here we have synthesized unnatural amino acid photocaged dihydrotetrazine-lysine 1b (12 mg, 15 μmol) and obtained a five-amino-acid peptide 1c through practical SPPS in 49% yield (FIG. 3A). After irradiation of dihydrotetrazine-peptide 1c (10 μM) for 2 minutes in PBS at 37° C., tetrazine-peptide 2c could been readily achieved, which contains two common bioorthogonal groups, including an azido group and a tetrazine group.
Considering the stability of photocaged dihydrotetrazines, we asked if such groups could act as photoprotection moieties, masking latent tetrazines through harsh conditions that would normally be degradative. For example, in 4-methylpiperidine/DMF solution, 40% of tetrazine 2a degrades in 30 minutes. […] Therefore, we hypothesized that photocaged dihydrotetrazines would be tolerated during SPPS. […]

[3] = system: Hep 3B human liver cancer cells; assay: Cell viability after light-activated tetrazine prodrug therapy; assay type: cell-based; conditions: for influence on cell viability, agent alone: 1a 8 μM or TCO-Dox 3c 5.5 μM alone; for influence on cell viability, agent alone with irradiation: LED light 2 minutes, 1a 8 μM, TCO-Dox 3c 5.5 μM or side product 4c 5.5 μM alone
Description: FIGS. 5A-5B. Light-activated tetrazine prodrug therapy in Hep 3B cancer cells. FIG. 5A: Application of light-controlled tetrazine ligation to release the chemotherapeutic doxorubicin in the presence of living Hep 3B cancer cells. Dox, doxorubicin. FIG. 5B: Cell viability of Hep 3B cancer cells after treatments with photocaged dihydrotetrazine 1a (8 μM), TCO-Dox 3c (5.5 μM), side product 4c (5.5 μM), and Dox 5a (5.5 μM) with or without irradiation by LED light (405 nm, 18 W) for 2 minutes, followed by incubation at 37° C. for 24 hours. Error bars indicate standard error of mean (SEM), which are measured from 3 replicates. Statistically significant differences in cell viability between no treatment and other means are indicated: **P<0.01. ns, not significant.
Based on the positive dual activation results obtained from the in vitro experiments, we next tested if light-triggered tetrazine ligation enabled prodrug therapy could be carried out in the presence of live cancer cells (FIG. 5B). […] Loss of cell viability was similar to that observed when cells were directly treated with Dox […] (5.5 μM) under the same conditions.
Based on the positive results obtained, we tested whether light-triggered drug delivery could be carried out in the presence of living cancer cells (FIG. 5B). […] However, upon irradiation with LED light (405 nm, 18W) for 2 minutes, followed by incubation for 24 hours, a 75.1±3% reduction of cell viability was observed. The loss of cell viability was similar to that observed when cells were directly treated with Dox 5a (5.5 μM) under the same conditions.

[4] = Stability of photocaged dihydrotetrazine in aqueous solution / PBS / cell lysate without irradiation; assay type: physicochemical; conditions: absence of irradiation, 37° C.
Description: We initiated our studies by synthesizing photocaged dihydrotetrazines 1. Ideally, photocaged dihydrotetrazine 1 should be stable in aqueous solution and the uncaged dihydrotetrazine should rapidly air oxidize to tetrazine 2. With these criteria in mind, we chose 3-(but-3-yn-1-yl)-6-phenyl-[…]1,2,4,5-tetrazine as a model building block, which we reduced to the corresponding dihydrotetrazine. We decided to include a terminal alkyne so that the photocaged dihydrotetrazine could be conjugated to functional molecules by copper-catalyzed azide-alkyne cycloaddition. For the photocleavable protecting group, we decided to utilize 1-(2-nitrophenyl)ethyl carbamate, due to its sensitivity to visible light, and its previous use in cellular studies. […] In the absence of irradiation, 1a is stable in aqueous solution at 37° C. with open air for over 4 days. Having photocaged dihydrotetrazines 1 in hand, we next characterized product formation after visible light triggered decaging (FIG. 2A). […] The resulting dihydrotetrazine intermediate is spontaneously oxidized by air, generating the desired 3-(but-3-yn-1-yl)-6-phenyl-1,2,4,5-tetrazine 2a.
as §1, with “After reacting the dihydrotetrazine intermediate with the selected photocleavable group, the desired product 1-(2-nitrophenyl)ethyl 6-(but-3-yn-1-yl)-3-phenyl-1,2,4,5-tetrazine-1(4H)-carboxylate photocaged dihydrotetrazine 1a was obtained. Nuclear magnetic resonance (NMR) studies confirmed that the secondary amine adjacent to the alkyl group of dihydrotetrazine 1a is functionalized.” left out

- degradation in 4-methylpiperidine/DMF solution ([2]; 30 minutes): 40%
Structure (SMILES): C#CCCc1nnc(-c2ccccc2)nn1 [2a, 3-(but-3-yn-1-yl)-6-phenyl-1,2,4,5-tetrazine]
- second-order rate constant [1]: 101 ± 3 M⁻¹ s⁻¹

Structure (SMILES): COc1cccc2c1C(=O)c1c(O)c3c(c(O)c1C2=O)C[C@@](O)(C(=O)CO)C[C@@H]3O[C@H]1C[C@H](NC(=O)OC2/C=C/CCCCC2)[C@H](O)[C@H](C)O1 (some centres unmarked) [TCO-Dox 3c]
- influence on cell viability, agent alone [3]: no influence on cell viability
- influence on cell viability, agent alone with irradiation [3]: no influence on cell viability

Structure (SMILES): COc1cccc2c1C(=O)c1c(O)c3c(c(O)c1C2=O)C[C@@](O)(C(=O)CO)C[C@@H]3O[C@H]1C[C@H](N)[C@H](O)[C@H](C)O1 [Dox 5a, doxorubicin, reference compound]
- loss of cell viability compared with irradiated 1a + TCO-Dox 3c mixture ([3]; direct treatment with Dox 5.5 μM, same conditions): similar

- stable in aqueous solution (time) ([4]; open air): over 4 days
- decomposition after 4 days of incubation ([4]; PBS or cell lysate): less than 1%
- degradation over 1 day ([4]; PBS or cell lysate): not observed
Structure (SMILES): C#CCCC1=NNC(c2ccccc2)=NN1C(=O)OC(C)c1ccccc1[N+](=O)[O-] (centres unmarked) [1a, 1-(2-nitrophenyl)ethyl 6-(but-3-yn-1-yl)-3-phenyl-1,2,4,5-tetrazine-1(4H)-carboxylate]
- influence on cell viability, agent alone [3]: no influence on cell viability
- influence on cell viability, agent alone with irradiation [3]: no influence on cell viability
- stability in 4-methylpiperidine/DMF solution ([2]; 4-methylpiperidine/DMF solution): stable; also recorded: no detectable degradation
